According to patent US20230167073A1 (Teijin Pharma Limited, priority 2020, published 2023):

Each compound was assayed against T1, Human TRPC6 (Homo sapiens, UniProt Q9Y210) (assay: Evaluation of TRPC6 channel inhibitory activity (1), FLIPR Calcium 5 Assay Kit, OAG stimulation (Compound Nos. 1-1293)). Details: Human TRPC6 stably-expressing cells, OAG 30 μM, FLIPR Calcium 5 Assay Kit; read-out: Inhibitory activity (pIC50 class) (converted).
T1 construct: expressed in transfected cells
T1 sequence (Q9Y210 1-931): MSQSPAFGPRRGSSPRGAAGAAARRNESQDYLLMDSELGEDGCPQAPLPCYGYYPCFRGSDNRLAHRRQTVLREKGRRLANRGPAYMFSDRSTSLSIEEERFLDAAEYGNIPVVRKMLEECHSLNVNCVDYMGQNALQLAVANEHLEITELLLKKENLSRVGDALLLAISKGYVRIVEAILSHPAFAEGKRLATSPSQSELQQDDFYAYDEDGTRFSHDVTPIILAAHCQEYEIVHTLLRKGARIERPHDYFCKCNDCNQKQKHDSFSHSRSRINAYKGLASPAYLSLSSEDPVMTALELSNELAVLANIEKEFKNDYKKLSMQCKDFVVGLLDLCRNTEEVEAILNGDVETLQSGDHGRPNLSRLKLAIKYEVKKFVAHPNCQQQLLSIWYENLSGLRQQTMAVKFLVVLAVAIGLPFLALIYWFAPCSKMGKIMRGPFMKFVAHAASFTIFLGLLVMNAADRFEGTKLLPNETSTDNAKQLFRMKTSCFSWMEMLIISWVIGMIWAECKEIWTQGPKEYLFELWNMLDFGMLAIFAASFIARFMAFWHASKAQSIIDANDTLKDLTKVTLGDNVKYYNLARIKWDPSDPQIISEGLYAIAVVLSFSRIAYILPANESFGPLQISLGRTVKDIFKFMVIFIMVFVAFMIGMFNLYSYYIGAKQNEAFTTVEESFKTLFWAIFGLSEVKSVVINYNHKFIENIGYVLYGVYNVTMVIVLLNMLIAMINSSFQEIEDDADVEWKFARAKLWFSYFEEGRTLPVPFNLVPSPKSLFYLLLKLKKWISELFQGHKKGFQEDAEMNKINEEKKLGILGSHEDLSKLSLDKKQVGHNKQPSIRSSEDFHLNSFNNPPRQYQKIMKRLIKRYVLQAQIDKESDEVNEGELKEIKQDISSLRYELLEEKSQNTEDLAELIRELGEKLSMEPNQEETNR
Format: cell-based
Summary of the method: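 The FLIPR signal is maximum fluorescence after 30 μM OAG minus minimum before compound, measured in a human TRPC6 stable line loaded with Calcium 5 dye. Compounds were preincubated 20 min. pIC50 came from four-parameter logistic fitting of inhibition rates and is given as symbol ranges.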

Question: For Cn1nc(-c2ccccc2)cc1Oc1cc(C#N)ccc1-c1cnc(C(O)CN)cn1 (centres unmarked) [compound 314, 4-[5-(2-amino-1-hydroxyethyl)pyrazin-2-yl]-3-(2-methyl-5-phenylpyrazol-3-yl)oxybenzonitrile], which IC50 is on record?
Answer: < 0.01 µM

Question: How did the IC50 turn out when Cc1cc(Oc2cc(C#N)ccc2-c2ncc(CCN)cn2)cc(C2CC2)n1 [compound 315, 4-[5-(2-aminoethyl)pyrimidin-2-yl]-3-(2-cyclopropyl-6-methylpyridin-4-yl)oxybenzonitrile] was run?
Answer: < 0.01 µM

Question: Cn1nc(C(=O)O)cc1Oc1cc(C#N)ccc1-c1ccc(CCN)cn1 [compound 316, 5-[2-[5-(2-aminoethyl)pyridin-2-yl]-5-cyanophenoxy]-1-methylpyrazole-3-carboxylic acid] was tested. Which IC50 did it give?
Answer: > 1 µM

Question: Which IC50 does the source give for Cn1nc(C2CC2)cc1Oc1cc(C#N)ccc1-c1ncc(CCN)cn1 [compound 317, 4-[5-(2-aminoethyl)pyrimidin-2-yl]-3-(5-cyclopropyl-2-methylpyrazol-3-yl)oxybenzonitrile] here?
Answer: < 0.01 µM

Question: How did the IC50 turn out when CCCCc1cc(Oc2cc(C#N)ccc2-c2ccc(C(O)CN)cn2)n(C)n1 (centres unmarked) [compound 318, 4-[5-(2-amino-1-hydroxyethyl)pyridin-2-yl]-3-(5-butyl-2-methylpyrazol-3-yl)oxybenzonitrile] was run?
Answer: < 0.01 µM

Question: How did the IC50 turn out when CCCCc1cc(Oc2cc(C#N)ccc2-c2ncc(CCN)cn2)n(C)n1 [compound 319, 4-[5-(2-aminoethyl)pyrimidin-2-yl]-3-(5-butyl-2-methylpyrazol-3-yl)oxybenzonitrile] was run?
Answer: < 0.01 µM

Question: With COc1ccccc1-c1cc(Oc2cc(C#N)ccc2-c2ccc(C(O)CN)cn2)n(C)n1 (centres unmarked) [compound 320, 4-[5-(2-amino-1-hydroxyethyl)pyridin-2-yl]-3-[5-(2-methoxyphenyl)-2-methylpyrazol-3-yl]oxybenzonitrile] as the compound, how does the IC50 read?
Answer: < 0.01 µM

Question: For Cn1nc(-c2ccccc2O)cc1Oc1cc(C#N)ccc1-c1ccc(C(O)CN)cn1 (centres unmarked) [compound 321, 4-[5-(2-amino-1-hydroxyethyl)pyridin-2-yl]-3-[5-(2-hydroxyphenyl)-2-methylpyrazol-3-yl]oxybenzonitrile], which IC50 is on record?
Answer: < 0.01 µM

Question: With Cn1nc(-c2ccccc2OCc2ccccc2)cc1Oc1cc(C#N)ccc1-c1ccc(C(O)CN)cn1 (centres unmarked) [compound 322, 4-[5-(2-amino-1-hydroxyethyl)pyridin-2-yl]-3-[2-methyl-5-(2-phenylmethoxyphenyl)pyrazol-3-yl]oxybenzonitrile] as the compound, how does the IC50 read?
Answer: 0.01 to 1 µM

Question: Which IC50 does the source give for Cc1cc(Oc2cc(C#N)ccc2-c2ccc(CN)cn2)n(C)n1 [compound 323, 4-[5-(aminomethyl)pyridin-2-yl]-3-(2,5-dimethylpyrazol-3-yl)oxybenzonitrile] here?
Answer: 0.01 to 1 µM

Question: How did the IC50 turn out when CCc1cc(Oc2cc(C#N)ccc2-c2ncc(CN)cn2)n(C)n1 [compound 324, 4-[5-(aminomethyl)pyrimidin-2-yl]-3-(5-ethyl-2-methylpyrazol-3-yl)oxybenzonitrile] was run?
Answer: < 0.01 µM

Question: Which IC50 does the source give for Cn1nc(C2CC2)cc1Oc1cc(C#N)ccc1-c1ncc(CN)cn1 [compound 325, 4-[5-(aminomethyl)pyrimidin-2-yl]-3-(5-cyclopropyl-2-methylpyrazol-3-yl)oxybenzonitrile] here?
Answer: < 0.01 µM

Question: Which IC50 does the source give for CCc1cc(Oc2cc(C#N)ccc2-c2ccc(CN)cn2)n(C)n1 [compound 326, 4-[5-(aminomethyl)pyridin-2-yl]-3-(5-ethyl-2-methylpyrazol-3-yl)oxybenzonitrile] here?
Answer: < 0.01 µM

Question: Which IC50 does the source give for Cn1nc(C2CC2)cc1Oc1cc(C#N)ccc1-c1ccc(CN)cn1 [compound 327, 4-[5-(aminomethyl)pyridin-2-yl]-3-(5-cyclopropyl-2-methylpyrazol-3-yl)oxybenzonitrile] here?
Answer: < 0.01 µM

Question: Cc1cc(Oc2cc(C#N)ccc2-c2ncc(CN)cn2)cc(N2CCOCC2)n1 [compound 328, 4-[5-(aminomethyl)pyrimidin-2-yl]-3-(2-methyl-6-morpholin-4-ylpyridin-4-yl)oxybenzonitrile] was tested. Which IC50 did it give?
Answer: < 0.01 µM

Question: For Cc1cc(Oc2cc(C#N)ccc2-c2ccc(CN)cn2)cc(N2CCOCC2)n1 [compound 329, 4-[5-(aminomethyl)pyridin-2-yl]-3-(2-methyl-6-morpholin-4-ylpyridin-4-yl)oxybenzonitrile], which IC50 is on record?
Answer: < 0.01 µM

Question: Which IC50 does the source give for CCc1cc(Oc2cc(C#N)ccc2-c2ccc(CN)nc2)n(C)n1 [compound 330, 4-[6-(aminomethyl)pyridin-3-yl]-3-(5-ethyl-2-methylpyrazol-3-yl)oxybenzonitrile] here?
Answer: > 1 µM

Question: With Cn1nc(C2CC2)cc1Oc1cc(C#N)ccc1-c1ccc(CN)nc1 [compound 331, 4-[6-(aminomethyl)pyridin-3-yl]-3-(5-cyclopropyl-2-methylpyrazol-3-yl)oxybenzonitrile] as the compound, how does the IC50 read?
Answer: 0.01 to 1 µM

Question: For Cc1cc(Oc2cc(C#N)ccc2-c2cnc(CN)cn2)cc(N2CCOCC2)n1 [compound 332, 4-[5-(aminomethyl)pyrazin-2-yl]-3-(2-methyl-6-morpholin-4-ylpyridin-4-yl)oxybenzonitrile], which IC50 is on record?
Answer: 0.01 to 1 µM

Question: How did the IC50 turn out when Cc1cc(Oc2cc(C#N)ccc2-c2ccc(CC(C)(C)N)cn2)cc(N2CCOCC2)n1 [compound 333, 4-[5-(2-amino-2-methylpropyl)pyridin-2-yl]-3-(2-methyl-6-morpholin-4-ylpyridin-4-yl)oxybenzonitrile] was run?
Answer: < 0.01 µM

Question: How did the IC50 turn out when Cn1nc(C2CC2)cc1Oc1cc(C#N)ccc1-c1ccc(CC(C)(C)N)cn1 [compound 334, 4-[5-(2-amino-2-methylpropyl)pyridin-2-yl]-3-(5-cyclopropyl-2-methylpyrazol-3-yl)oxybenzonitrile] was run?
Answer: < 0.01 µM

Question: Cn1nc(C2CC2)cc1Oc1cc(C#N)ccc1-c1ccc(C(O)C(C)(C)N)cn1 (centres unmarked) [compound 335, 4-[5-(2-amino-1-hydroxy-2-methylpropyl)pyridin-2-yl]-3-(5-cyclopropyl-2-methylpyrazol-3-yl)oxybenzonitrile] was tested. Which IC50 did it give?
Answer: < 0.01 µM

Question: For CCCCc1cc(Oc2cc(C#N)ccc2-c2ccc(C(O)C(C)(C)N)cn2)n(C)n1 (centres unmarked) [compound 336, 4-[5-(2-amino-1-hydroxy-2-methylpropyl)pyridin-2-yl]-3-(5-butyl-2-methylpyrazol-3-yl)oxybenzonitrile], which IC50 is on record?
Answer: < 0.01 µM

Question: Which IC50 does the source give for CCCCc1cc(Oc2cc(C#N)ccc2-c2ncc(C(O)CN)cn2)n(C)n1 (centres unmarked) [compound 337, 4-[5-(2-amino-1-hydroxyethyl)pyrimidin-2-yl]-3-(5-butyl-2-methylpyrazol-3-yl)oxybenzonitrile] here?
Answer: < 0.01 µM

Question: For Cn1nc(-c2ccccn2)cc1Oc1cc(C#N)ccc1-c1ccc(CC(C)(C)N)cn1 [compound 338, 4-[5-(2-amino-2-methylpropyl)pyridin-2-yl]-3-(2-methyl-5-pyridin-2-ylpyrazol-3-yl)oxybenzonitrile], which IC50 is on record?
Answer: < 0.01 µM

Question: Cc1nc(Oc2cc(C#N)ccc2-n2cc([C@@H](O)CN)cn2)cc(-c2ccccc2F)n1 [compound 339, 4-[4-[(1R)-2-amino-1-hydroxyethyl]pyrazol-1-yl]-3-[6-(2-fluorophenyl)-2-methylpyrimidin-4-yl]oxybenzonitrile] was tested. Which IC50 did it give?
Answer: 0.01 to 1 µM

Question: Which IC50 does the source give for Cc1nc(Oc2cc(C#N)ccc2-n2cc([C@@H](O)CN)cn2)cc(-c2ccccc2Cl)n1 [compound 340, 4-[4-[(1R)-2-amino-1-hydroxyethyl]pyrazol-1-yl]-3-[6-(2-chlorophenyl)-2-methylpyrimidin-4-yl]oxybenzonitrile] here?
Answer: 0.01 to 1 µM

Question: Which IC50 does the source give for Cc1nc(Oc2cc(C#N)ccc2-n2cc([C@@H](O)CN)cn2)cc(-c2ccccc2C#N)n1 [compound 341, 4-[4-[(1R)-2-amino-1-hydroxyethyl]pyrazol-1-yl]-3-[6-(2-cyanophenyl)-2-methylpyrimidin-4-yl]oxybenzonitrile] here?
Answer: < 0.01 µM

Question: Cc1nc(Oc2cc(C#N)ccc2-n2cc([C@H](O)CN)cn2)cc(-c2ccccc2F)n1 [compound 342, 4-[4-[(1S)-2-amino-1-hydroxyethyl]pyrazol-1-yl]-3-[6-(2-fluorophenyl)-2-methylpyrimidin-4-yl]oxybenzonitrile] was tested. Which IC50 did it give?
Answer: 0.01 to 1 µM

Question: Which IC50 does the source give for Cc1nc(Oc2cc(C#N)ccc2-n2cc([C@H](O)CN)cn2)cc(-c2ccccc2Cl)n1 [compound 343, 4-[4-[(1S)-2-amino-1-hydroxyethyl]pyrazol-1-yl]-3-[6-(2-chlorophenyl)-2-methylpyrimidin-4-yl]oxybenzonitrile] here?
Answer: 0.01 to 1 µM

Question: With Cc1nc(Oc2cc(C#N)ccc2-n2cc([C@H](O)CN)cn2)cc(-c2ccccc2C#N)n1 [compound 344, 4-[4-[(1S)-2-amino-1-hydroxyethyl]pyrazol-1-yl]-3-[6-(2-cyanophenyl)-2-methylpyrimidin-4-yl]oxybenzonitrile] as the compound, how does the IC50 read?
Answer: < 0.01 µM

Question: CCc1cc(Oc2cc(C#N)ccc2-c2ccc(OCCN)cn2)n(C)n1 [compound 345, 4-[5-(2-aminoethoxy)pyridin-2-yl]-3-(5-ethyl-2-methylpyrazol-3-yl)oxybenzonitrile] was tested. Which IC50 did it give?
Answer: 0.01 to 1 µM
